# According to patent publication US11370774B2, “Substituted benzofuran, benzopyrrole, benzothiophene, and structurally related complement inhibitors” (BioCryst Pharmaceuticals, Inc., priority 2018, dated 2022):
# Target: Factor D (Homo sapiens (Human), UniProt P00746)
# Experiment: Factor D esterolytic assay (Z-Lys-SBzl substrate, DTNB, 405 nm)
# Format: biochemical
# Conditions: Z-Lys-SBzl 1.29 mM, pH 7.5, 10% DMSO, tested a minimum of three times, read-out: Measured Ki (IC50) Value for Compounds: IC50
# Summary of the method: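 Human Factor D ([…]) with 1.29 mM Z-Lys-SBzl in 100 mM HEPES, 500 mM NaCl, pH 7.5, 10% DMSO; substrate added immediately or after room-temperature preincubation. Released thiol reacted with DTNB, rate followed at 405 nm for 600 sec, 690 nm background subtracted. IC50 from percent inhibition versus uninhibited rate, n≥3.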
# Factor D, sequence (P00746 26-253): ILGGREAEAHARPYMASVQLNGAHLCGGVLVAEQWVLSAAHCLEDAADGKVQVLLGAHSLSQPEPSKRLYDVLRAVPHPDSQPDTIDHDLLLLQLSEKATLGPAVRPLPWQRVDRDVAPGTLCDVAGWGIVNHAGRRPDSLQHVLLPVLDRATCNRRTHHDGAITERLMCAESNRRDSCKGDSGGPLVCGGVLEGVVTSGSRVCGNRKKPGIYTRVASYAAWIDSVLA
row,SMILES,IC50 [nM]
1,"Cc1ccc(CC(=O)O)c(OCc2cc(-c3cccc(CN)c3F)c3occ(C(F)(F)F)c3c2)c1 [Compound 349b, 2-(2-((7-(3-(aminomethyl)-2-fluorophenyl)-3-(trifluoromethyl)benzofuran-5-yl)methoxy)-4-methylphenyl)acetic acid]",< 1000
2,"COc1ccc(OCc2cc(-c3cccc(CN)c3)c3occc3c2)c(CC(=O)O)c1 [Compound 350e, 2-(2-((7-(3-(aminomethyl)phenyl)benzofuran-5-yl)methoxy)-5-methoxyphenyl)acetic acid]",< 1000
3,"NCc1cccc(-c2cc(COc3ccccc3CC(=O)O)cc3c2ccn3-c2ccccc2)c1 [Compound 351f, 2-(2-((4-(3-(aminomethyl)phenyl)-1-phenyl-1H-indol-6-yl)methoxy)phenyl)acetic acid]",< 1000
4,"Cc1ccc(CC(=O)O)c(OCc2cc(-c3cccc(CN)c3)c3ccn(C(C)C)c3c2)c1 [Compound 352c, 2-(2-((4-(3-(aminomethyl)phenyl)-1-isopropyl-1H-indol-6-yl)methoxy)-4-methylphenyl)acetic acid]",< 1000
5,"Cc1ccc(CC(=O)O)c(OCc2cc(-c3cccc(CN)c3F)c3ccn(C(C)C)c3c2)c1 [Compound 353b, 2-(2-((4-(3-(aminomethyl)-2-fluorophenyl)-1-isopropyl-1H-indol-6-yl)methoxy)-4-methylphenyl)acetic acid]",< 1000
6,"Cc1ccc(CC(=O)O)c(OCc2cc(-c3ccnc(CN)c3)c3ccn(C(C)C)c3c2)c1 [Compound 354c, 2-(2-((4-(2-(aminomethyl)pyridin-4-yl)-1-isopropyl-1H-indol-6-yl)methoxy)-4-methylphenyl)acetic acid]",< 1000
7,"Cc1ccc(CC(=O)O)c(OCc2cc(-c3ccnc(CN)c3F)c3ccn(C(C)C)c3c2)c1 [Compound 355c, 2-(2-((4-(2-(aminomethyl)-3-fluoropyridin-4-yl)-1-isopropyl-1H-indol-6-yl)methoxy)-4-methylphenyl)acetic acid]",< 1000
8,"COc1ccc(CC(=O)O)c(OCc2cc(-c3cccc(CN)c3)c3ccn(C(C)C)c3c2)c1 [Compound 356c, 2-(2-((4-(3-(aminomethyl)phenyl)-1-isopropyl-1H-indol-6-yl)methoxy)-4-methoxyphenyl)acetic acid]",< 1000
9,"COc1ccc(CC(=O)O)c(OCc2cc(-c3cccc(CN)c3F)c3ccn(C(C)C)c3c2)c1 [Compound 357b, 2-(2-((4-(3-(aminomethyl)-2-fluorophenyl)-1-isopropyl-1H-indol-6-yl)methoxy)-4-methoxyphenyl)acetic acid]",< 1000
10,"Cc1ccc(CC(=O)O)c(OCc2cc(-c3cccc(CN)c3)c3ccn(C)c3c2)c1 [Compound 358c, 2-(2-((4-(3-(aminomethyl)phenyl)-1-methyl-1H-indol-6-yl)methoxy)-4-methylphenyl)acetic acid]",< 1000
11,"Cc1ccc(CC(=O)O)c(OCc2cc(-c3cccc(CN)c3F)c3ccn(C)c3c2)c1 [Compound 359b, 2-(2-((4-(3-(aminomethyl)-2-fluorophenyl)-1-methyl-1H-indol-6-yl)methoxy)-4-methylphenyl)acetic acid]",< 1000
12,"CC(=O)Nc1ccc(OCc2cc(-c3cccc(CN)c3)c3occc3c2)c(CC(=O)O)c1 [Compound 360c, 2-(5-acetamido-2-((7-(3-(aminomethyl)phenyl)benzofuran-5-yl)methoxy)phenyl)acetic acid]",< 1000
13,"NCc1cccc(-c2cc(COc3cc(CO)ccc3CC(=O)O)cc3ccoc23)c1 [Compound 361c, 2-(2-((7-(3-(aminomethyl)phenyl)benzofuran-5-yl)methoxy)-4-(hydroxymethyl)phenyl)acetic acid]",< 1000
14,"NCc1cccc(-c2cc(COc3ccccc3CC(=O)O)cc3c2ccn3Cc2ccccc2)c1 [Compound 362e, 2-(2-((4-(3-(aminomethyl)phenyl)-1-benzyl-1H-indol-6-yl)methoxy)phenyl)acetic acid]",< 1000
15,"NCc1cccc(-c2cc(COc3cc(F)ccc3CC(=O)O)cc3ccoc23)c1F [Compound 363b, 2-(2-((7-(3-(aminomethyl)-2-fluorophenyl)benzofuran-5-yl)methoxy)-4-fluorophenyl)acetic acid]",< 1000
16,"NCc1nccc(-c2cc(COc3cc(F)ccc3CC(=O)O)cc3ccoc23)c1F [Compound 364d, 2-(2-((7-(2-(aminomethyl)-3-fluoropyridin-4-yl)benzofuran-5-yl)methoxy)-4-fluorophenyl)acetic acid]",< 1000
17,"NCc1cc(-c2cc(COc3cc(F)ccc3CC(=O)O)cc3ccoc23)ccn1 [Compound 365f, 2-(2-((7-(2-(aminomethyl)pyridin-4-yl)benzofuran-5-yl)methoxy)-4-fluorophenyl)acetic acid]",< 1000
18,"Cc1ccc(CC(=O)O)c(OCc2cc(-c3ccnc(CN)c3F)c3ccn(C)c3c2)c1 [Compound 366d, 2-(2-((4-(2-(aminomethyl)-3-fluoropyridin-4-yl)-1-methyl-1H-indol-6-yl)methoxy)-4-methylphenyl)acetic acid]",< 1000

row,SMILES,IC50 [nM]
1,"Cc1ccc(CC(=O)O)c(OCc2cc(-c3ccnc(CN)c3)c3ccn(C)c3c2)c1 [Compound 367c, 2-(2-((4-(2-(aminomethyl)pyridin-4-yl)-1-methyl-1H-indol-6-yl)methoxy)-4-methylphenyl)acetic acid]",< 1000
2,"NCc1cccc(-c2cc(CC(=O)N3C[C@H](F)C[C@H]3C(=O)NCc3cccc(Cl)c3F)cc3ccoc23)c1 [Compound 368c, (2S,4R)-1-(2-(7-(3-(aminomethyl)phenyl)benzofuran-5-yl)acetyl)-N-(3-chloro-2-fluorobenzyl)-4-fluoropyrrolidine-2-carboxamide]",< 1000
3,"NCc1cccc(-c2cc(CCN3CCC[C@H]3C(=O)NCc3cccc(Cl)c3F)cc3ccoc23)c1 [Compound 369d, (S)-1-(2-(7-(3-(aminomethyl)phenyl)benzofuran-5-yl)ethyl)-N-(3-chloro-2-fluorobenzyl)pyrrolidine-2-carboxamide]",< 1000
4,"NCc1cccc(-c2cc(COc3c(CC(=O)O)cccc3-c3ccccc3)cc3ccoc23)c1 [Compound 370f, 2-(2-((7-(3-(aminomethyl)phenyl)benzofuran-5-yl)methoxy)-[1,1′-biphenyl]-3-yl)acetic acid]",< 1000
5,"CCc1ccc(CC(=O)O)c(OCc2cc(-c3ccnc(CN)c3)c3occc3c2)c1 [Compound 371c, 2-(2-((7-(2-(aminomethyl)pyridin-4-yl)benzofuran-5-yl)methoxy)-4-ethylphenyl)acetic acid]",< 1000
6,"Cn1ccc(NCc2cc3cc(COc4ccccc4CC(=O)O)cc(-c4cccc(CN)c4)c3o2)n1 [Compound 372c, 2-(2-((7-(3-(aminomethyl)phenyl)-2-(((1-methyl-1H-pyrazol-3-yl)amino)methyl)benzofuran-5-yl)methoxy)phenyl)acetic acid]",< 1000
7,"NCc1cccc(-c2cc(COc3ccccc3CC(=O)O)cc3cc(F)oc23)c1F [Compound 373b, 2-(2-((7-(3-(aminomethyl)-2-fluorophenyl)-2-fluorobenzofuran-5-yl)methoxy)phenyl)acetic acid]",< 1000
8,"NCc1cccc(-c2cc(COc3ccccc3CC(=O)O)cc3cc(-c4ccccc4)oc23)c1 [Compound 374f, 2-(2-((7-(3-(aminomethyl)phenyl)-2-phenylbenzofuran-5-yl)methoxy)phenyl)acetic acid]",< 1000
9,"CCc1ccc(CC(=O)O)c(OCc2cc(-c3ccnc(CN)c3F)c3occc3c2)c1 [Compound 375c, 2-(2-((7-(2-(aminomethyl)-3-fluoropyridin-4-yl)benzofuran-5-yl)methoxy)-4-ethylphenyl)acetic acid]",< 1000
10,"NCc1cccc(-c2cc(COc3ccccc3CC(=O)O)cc3cc(Cc4ccccc4)oc23)c1 [Compound 377e, 2-(2-((7-(3-(aminomethyl)phenyl)-2-benzylbenzofuran-5-yl)methoxy)phenyl)acetic acid]",< 1000
11,"CN(Cc1ccccc1CC(=O)O)c1cc(-c2cccc(CN)c2)c2occc2c1 [Compound 378d, 2-(2-(((7-(3-(aminomethyl)phenyl)benzofuran-5-yl)(methyl)amino)methyl)phenyl)acetic acid]",< 1000
12,"Cc1ccc(CC(=O)O)c(OCc2cc(-c3ccnc(CN)c3)c3occ(C(F)(F)F)c3c2)c1 [Compound 379c, 2-(2-((7-(2-(aminomethyl)pyridin-4-yl)-3-(trifluoromethyl)benzofuran-5-yl)methoxy)-4-methylphenyl)acetic acid]",< 1000
13,"N[C@H](c1cc(-c2cc(COc3ccccc3CC(=O)O)cc3ccoc23)ccn1)C(F)(F)F [Compound 380e, (R)-2-(2-((7-(2-(1-amino-2,2,2-trifluoroethyl)pyridin-4-yl)benzofuran-5-yl)methoxy)phenyl)acetic acid]",> 10000
14,"N[C@@H](c1cc(-c2cc(COc3ccccc3CC(=O)O)cc3ccoc23)ccn1)C(F)(F)F [Compound 381e, (S)-2-(2-((7-(2-(1-amino-2,2,2-trifluoroethyl)pyridin-4-yl)benzofuran-5-yl)methoxy)phenyl)acetic acid]",> 10000
15,"Cc1coc2c(-c3cccc(CN)c3)cc(COc3ccccc3CC(=O)O)cc12 [Compound 382h, 2-(2-((7-(3-(aminomethyl)phenyl)-3-methylbenzofuran-5-yl)methoxy)phenyl)acetic acid]",< 1000
16,"Cc1coc2c(-c3cccc(CN)c3F)cc(COc3ccccc3CC(=O)O)cc12 [Compound 383b, 2-(2-((7-(3-(aminomethyl)-2-fluorophenyl)-3-methylbenzofuran-5-yl)methoxy)phenyl)acetic acid]",< 1000
17,"COc1ccc(CC(=O)O)c(OCc2cc(-c3cccc(CN)c3)c3occc3c2F)c1 [Compound 384c, 2-(2-((7-(3-(aminomethyl)phenyl)-4-fluorobenzofuran-5-yl)methoxy)-4-methoxyphenyl)acetic acid]",< 1000
